Activity calls are given as the source filed them.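 How the source made its calls: active means IC50 below 100 µM in the TR-FRET assay, unless also active in the caspase-3 counter assay; inactive means the rest, including compounds also active in caspase-3.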
What follows are compounds tested against Caspase-3 (Homo sapiens) (UniProt P42574) (assay: caspase-3 inhibitors as false-positive filter, SAR follow-up, counter-screen for UBC13 polyubiquitin inhibitor project, biochemical, luminescence, Caspase-Glo 3/7, set 2 (AID 588375)). Settings: recombinant caspase-3, Caspase-Glo luminescence, 60 min.
Sequence of Caspase-3 (Homo sapiens) (P42574 whole entry, looked up): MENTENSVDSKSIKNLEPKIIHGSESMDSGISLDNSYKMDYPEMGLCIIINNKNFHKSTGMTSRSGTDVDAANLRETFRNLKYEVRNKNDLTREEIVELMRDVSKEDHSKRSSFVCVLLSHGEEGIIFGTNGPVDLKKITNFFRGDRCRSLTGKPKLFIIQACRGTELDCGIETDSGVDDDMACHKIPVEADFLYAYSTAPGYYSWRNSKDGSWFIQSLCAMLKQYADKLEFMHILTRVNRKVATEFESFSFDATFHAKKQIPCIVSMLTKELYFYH

| Compound | IC50 |
| --- | --- |
| Cc1cccc(NC(=O)CN2CCC(n3cnc4cc(F)ccc43)CC2)c1C | > 100 µM (inactive) |
| CCOc1ccc(NC(=O)CN2CCC(n3cnc4cc(F)ccc43)CC2)cc1 | > 100 µM (inactive) |
| O=C(CN1CCC(n2cnc3cc(F)ccc32)CC1)Nc1cccc(C(F)(F)F)c1 | > 100 µM (inactive) |
| CC1(C)Cc2c(sc(NC(=O)C(=O)NCC3CCCO3)c2C(N)=O)CO1 (configuration not stated) | > 100 µM (inactive) |
| CCOc1ccccc1NC(=O)CN1CCC(n2cnc3cc(F)ccc32)CC1 | > 100 µM (inactive) |
| O=C(CN1CCC(n2cnc3cc(C(F)(F)F)ccc32)CC1)Nc1ccc2c(c1)OCCO2 | > 100 µM (inactive) |
| CC1(C)Cc2c(sc(NC(=O)C(=O)N3CCCC3)c2C(N)=O)CO1 | > 100 µM (inactive) |
| O=C(CN1CCC(n2c(C(F)(F)F)nc3cc(F)ccc32)CC1)Nc1ccc2c(c1)OCO2 | > 100 µM (inactive) |
| COc1ccc(OC)c(NC(=O)CN2CCC(n3cnc4cc(F)ccc43)CC2)c1 | > 100 µM (inactive) |
| COC(=O)c1c(NC(=O)C(=O)NCC2CCCO2)sc2c1CC(C)(C)OC2 (configuration not stated) | > 100 µM (inactive) |
| CC1(C)Cc2c(sc(NC(=O)C(=O)NCC3CCCO3)c2C(=O)O)CO1 (configuration not stated) | > 100 µM (inactive) |
| Cc1nc2ccccc2n1C1CCN(CC(=O)Nc2ccccc2Oc2ccccc2)CC1 | > 100 µM (inactive) |
| COc1ccc(NC(=O)CN2CCC(n3c(C)nc4cc(F)ccc43)CC2)c(OC)c1 | > 100 µM (inactive) |
| O=C(CN1CCC(n2cnc3cc(F)ccc32)CC1)Nc1ccccc1Br | > 100 µM (inactive) |
| CC1(C)Cc2c(sc(NC(=O)C(=O)NCCN3CCOCC3)c2C(N)=O)CO1 | > 100 µM (inactive) |
| COc1ccc(OC)c(NC(=O)CN2CCC(n3c(C)nc4cc(F)ccc43)CC2)c1 | > 100 µM (inactive) |

Second part, the compound after the results:

| IC50 | Compound |
| --- | --- |
| > 100 µM (inactive) | Cc1ccc(C)c(N2CCN(CCCNC(=O)C3CCCN(c4ncnc5c4nc4n5CCCCC4)C3)CC2)c1 (configuration not stated) |
| > 100 µM (inactive) | COc1ccccc1N1CCN(CCCNC(=O)C2CCCN(c3ncnc4c3nc3n4CCCCC3)C2)CC1 (configuration not stated) |
| > 100 µM (inactive) | O=C(C1CCN(c2ncnc3c2nc2n3CCCCC2)CC1)N1CCN(c2ccccn2)CC1 |
| > 100 µM (inactive) | Cc1nc2cc(F)ccc2n1C1CCN(CC(=O)Nc2ccccc2)CC1 |
| > 100 µM (inactive) | O=C(C1CCN(c2ncnc3c2nc2n3CCCCC2)CC1)N1CCN(Cc2ccccc2)CC1 |
| > 100 µM (inactive) | Cc1cccc(N2CCN(CCCNC(=O)C3CCCN(c4ncnc5c4nc4n5CCCCC4)C3)CC2C)c1 (configuration not stated) |
| > 100 µM (inactive) | O=C(c1ccco1)N1CCN(C(=O)C2CCN(c3ncnc4c3nc3n4CCCCC3)CC2)CC1 |
| > 100 µM (inactive) | O=C(NCCCN1CCN(c2ccc(F)cc2)CC1)C1CCCN(c2ncnc3c2nc2n3CCCCC2)C1 (configuration not stated) |
| > 100 µM (inactive) | O=C(NCCCN1CCN(c2ccccc2)CC1)C1CCCN(c2ncnc3c2nc2n3CCCCC2)C1 (configuration not stated) |
| > 100 µM (inactive) | O=C(C1CCN(c2ncnc3c2nc2n3CCCCC2)CC1)N1CCN(c2ncccn2)CC1 |
| > 100 µM (inactive) | O=C(C1CCN(c2ncnc3c2nc2n3CCCCC2)CC1)N1CCN(c2ccc(F)cc2)CC1 |

Reference: PubChem BioAssay AID588375 (Sanford-Burnham Center for Chemical Genomics, 2011)
